In patent US9132104B2, “Fortification of nutritional products with olive extracts containing hydroxytyrosol and hydroxytyrosol fortified nutritional products” (PROBELTE PHARMA S.A., priority 2007, dated 2015):

System: male Sprage Dawley rats
Experiment: L-NAME induced hypertension model, arterial blood pressure by tail-cuff method (Example 11)
Type: in vivo
Details: rat, L-NAME 40 mg/Kg in drinking water, oral gavage 100 mg/Kg (group 6, positive control)
Procedure: Thirty-six male Sprage Dawley rats (weight aprox. 200 at the beginning of the experiment) were obtained from Harlan Interfauna Iberica SA (Barcelona, Spain) and maintained during all the experiment in the installations of the animalary service at the University of Murcia. The animals were randomly distributed into six experimental groups of 6 rats each one, housed under standard conditions of lighting (day/night cycles of 12 h), temperature (22±2° C.) and humidity (60%).
During the setting period and the experimental periods, rats were feed on a solid standard diet for rats (Panlab). Drinking water and food were available ad libitum. After an setting period of 7 days, treatments according the experimental design were started.
In order to determine the effect of fortified extra virgin olive oil (evoo added with the olive extract according to the present invention) N-nitro-L-arginine-methylester (L-NAME) induced hypertension model was used.
Arterial blood pressure was measured with a periodicity according the above cronogramme, by the tail-cuff method. Before the measurement, rats were kept at 37° C. for 10 min to make the pulsations of the tail artery detectable. […] The arterial blood pressure measurements were performed at the same time of the day in order to avoid any influence of the circadian cycle.

## C[C@H](CS)C(=O)N1CCC[C@H]1C(=O)O [Captopril]
  systolic blood pressure: significant reduction of the blood pressure values
